# Entries after “also recorded” stand apart in the source; their conditions may differ. Read-outs that look alike come from different tables or passages of the source.
# Assays:
# [1] = 7-day pilot intranasal toxicity and toxicokinetic study in rats; settings: for Tmax / AUC(0-t) / Cmax: male, plasma, inhaled or intranasal, Male; for AUC(0-t): AUC0-t
# Protocol: The study design was as follows:
# The following parameters and end points were evaluated in this study; clinical signs, body weights, body weight gain, food consumption, ophthalmology, toxicokinetic parameters, gross necropsy findings, organ weights, and histopathologic examination of select tissues, including nasal cavity at levels I-IV and detailed ocular histopathology for all dose groups: histopathology for brain, pharynx, larynx, trachea, lung, and select target tissues (i.e., adrenal gland, liver, and spleen) that were identified in a GLP 13-week oral toxicity study in rats (DSE 2004-0356) in group 1 and 4 animals, and gross lesions.
# [2] = CNS safety pharmacology, body temperature; format: in vivo, Rat: Sprague-Dawley; settings: po, doses up to and including 100 mg/kg
# [3] = tested on: neuronal nicotinic receptors; assay: In vitro binding (off-target receptors) at 10 μM; settings: hemigalactarate salt
# pKa = format: physicochemical
# a6/a3b2b3 = a6/a3b2b3 (Homo sapiens, UniProt P17787+P32297+Q15825); assay: Receptor function a6/a3b2b3, Ca++ flux; format: cell-based
# [4] = Single dose pharmacokinetics, mouse; format: in vivo, Swiss mouse; settings: for half-life: po, 1 mg/kg
# [5] = Stability study of drug substance; format: physicochemical
# Protocol: A previous cGMP lot of Compound 1 was manufactured.
# There was a slight decrease in assay value below the 98% specification at 6 month 40° C./75% RH and 9 month 30° C./65% RH. However, based on the minimal change at accelerated conditions and the stability of the real time data, the drug substance is currently considered to be stable for at least 36 months.
# [6] = tested on: arterial pressure, heart rate, ECG, body temperature; assay: Cardiovascular safety, conscious telemetered monkeys po; format: in vivo, Monkey: Cynomologous; settings: single oral doses 3, 10, 30 mg/kg
# [7] = tested on: muscarinic (non-selective) sites; assay: In vitro binding (off-target receptors) at 10 μM; settings: hemigalactarate salt
# [8] = rat, 10.8 mg/day, Day 1, 10.8 mg/day (6%), intranasal TID
# [9] = rat, 10.8 mg/day, Day 7, 10.8 mg/day (6%), intranasal TID
# [10] = plasma, Swiss mouse, 1.0 mg/kg Compound 1, oral
# a6/a3b2b3, sequence (Q15825+P32297 fused with the stated changes): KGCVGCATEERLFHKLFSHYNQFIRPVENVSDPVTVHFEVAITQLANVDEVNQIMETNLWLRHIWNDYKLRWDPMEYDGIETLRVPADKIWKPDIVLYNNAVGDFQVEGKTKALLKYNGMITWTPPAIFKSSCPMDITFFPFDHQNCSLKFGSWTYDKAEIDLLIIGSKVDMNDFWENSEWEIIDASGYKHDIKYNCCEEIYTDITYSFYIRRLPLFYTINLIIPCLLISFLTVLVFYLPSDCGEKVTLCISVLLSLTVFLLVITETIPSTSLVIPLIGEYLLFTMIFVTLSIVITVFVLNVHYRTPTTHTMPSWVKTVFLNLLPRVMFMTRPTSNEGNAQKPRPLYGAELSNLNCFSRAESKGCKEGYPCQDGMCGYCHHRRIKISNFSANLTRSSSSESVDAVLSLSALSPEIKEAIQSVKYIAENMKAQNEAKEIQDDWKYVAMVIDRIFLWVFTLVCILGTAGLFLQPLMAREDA
# a6/a3b2b3, sequence (P17787 26-502): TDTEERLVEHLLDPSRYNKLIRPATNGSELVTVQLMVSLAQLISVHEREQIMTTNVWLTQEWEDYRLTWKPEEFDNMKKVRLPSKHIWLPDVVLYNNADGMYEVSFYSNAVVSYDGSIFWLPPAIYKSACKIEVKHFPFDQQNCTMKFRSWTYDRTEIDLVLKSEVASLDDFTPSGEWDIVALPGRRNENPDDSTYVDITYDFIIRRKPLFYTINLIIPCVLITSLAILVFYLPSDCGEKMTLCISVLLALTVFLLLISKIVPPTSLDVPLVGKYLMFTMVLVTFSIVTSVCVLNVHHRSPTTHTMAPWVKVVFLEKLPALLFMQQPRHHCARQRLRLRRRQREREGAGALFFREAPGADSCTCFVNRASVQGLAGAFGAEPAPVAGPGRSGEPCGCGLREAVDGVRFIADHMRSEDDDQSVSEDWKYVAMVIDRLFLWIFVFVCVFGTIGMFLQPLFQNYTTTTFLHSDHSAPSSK
# a6/a3b2b3, sequence (Q05901 25-458 partner limits assumed): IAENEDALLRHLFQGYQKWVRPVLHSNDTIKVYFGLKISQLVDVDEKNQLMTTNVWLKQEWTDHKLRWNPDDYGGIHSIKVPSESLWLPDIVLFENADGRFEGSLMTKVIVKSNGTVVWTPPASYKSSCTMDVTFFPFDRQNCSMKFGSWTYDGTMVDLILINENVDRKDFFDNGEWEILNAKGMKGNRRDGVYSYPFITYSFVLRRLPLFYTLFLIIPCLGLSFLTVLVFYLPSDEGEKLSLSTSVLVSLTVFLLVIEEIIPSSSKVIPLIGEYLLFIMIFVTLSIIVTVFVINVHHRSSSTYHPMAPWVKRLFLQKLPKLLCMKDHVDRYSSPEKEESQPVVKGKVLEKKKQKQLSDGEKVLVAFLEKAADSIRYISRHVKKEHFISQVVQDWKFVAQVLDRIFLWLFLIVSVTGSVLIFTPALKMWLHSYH
smiles,measurement,setting,value
"C(=C\[C@H]1CCNC1)/c1cncnc1 [Compound 1, (R)-5-((E)-2-pyrrolidin-3-ylvinyl)pyrimidine]",Tmax,"[1]; rat, 3.6 mg/day, Day 1, 3.6 mg/day (2%), intranasal TID",365 min
same,Tmax,"[1]; rat, 3.6 mg/day, Day 7, 3.6 mg/day (2%), intranasal TID",4.98 min
same,AUC(0-t),[1]; [8],1.7 µg·h/mL
same,AUC(0-t),[1]; [9],0.878 µg·h/mL
same,Cmax,[1]; [8],0.924 µg/mL
same,Cmax,[1]; [9],0.225 µg/mL
same,Tmax,[1]; [8],725 min
same,Tmax,[1]; [9],725 min
same,time of peak systemic exposure after each instillation,"[1]; rat, intranasal TID, post administration",5 min
same,survival,"[1]; rats, intranasal 0.5%, 2% and 6%, 3 times per day for 7 days",survival of all animals to scheduled euthanasia
same,no-observed-adverse-effect-level (NOAEL),"[1]; rats, intranasal 3 times per day for 7 days",180 μL 6% Compound 1 per animal per day
same,effect on body temperature,[2],no noteworthy changes; also recorded: Compound 1 had no effect on body
same,binding affinity,[3],"nicotinic receptors (100%), the only"
same,pKa,pKa; read-out: pKa(1),1.73
same,pKa,pKa; read-out: pKa(2),10.3
same,(Imax),a6/a3b2b3; Human a6/a3b2b3,49
same,IC50,a6/a3b2b3; Human a6/a3b2b3,2.8 µM
same,DC50,"a6/a3b2b3; Human a6/a3b2b3, Ca++ Flux",0.031 µM
same,Dmax,"a6/a3b2b3; Human a6/a3b2b3, Ca++ Flux",99%
same,EC50,"a6/a3b2b3; Human a6/a3b2b3, Ca++ Flux",0.47 µM
same,Emax,"a6/a3b2b3; Human a6/a3b2b3, Ca++ Flux",92%
same,Kp,"[4]; Swiss, mouse, brain, oral, 1 mg/kg orally, read-out: brain exposure as share of plasma exposure",~0.3
same,half-life,"[4]; Swiss, mouse, plasma, 1 mg/kg orally, read-out: terminal elimination half-life (converted)",~30 min
same,half-life,"[4]; Swiss, mouse, plasma, Swiss mouse, 1.0 mg/kg Compound 1, oral, read-out: t1/2 (converted)",30 min
same,Cmax,[4]; [10],0.015 µg/mL
same,Tmax,[4]; [10],10 min
same,AUC(0-t),"[4]; plasma, Swiss mouse, 1.0 mg/kg Compound 1, oral, t = 25 h, read-out: AUC0-1",0.0101 µg·h/mL
same,assay value,"[5]; 6 month, 40° C./75% RH",< 98%
same,assay value,"[5]; 9 month, 30° C./65% RH",< 98%
same,Assay (HPLC-UV),"[5]; 25° C./60% RH, 1 M",102.4%
same,"Related Substances, RRT = 0.26","[5]; 25° C./60% RH, 1 M",0.09 % w/w
same,Total Related Substances,"[5]; 25° C./60% RH, 1 M",0.09%
same,Water Content (Karl Fischer),"[5]; 25° C./60% RH, 1 M",12.10 % w/w
same,Assay (HPLC-UV),"[5]; 25° C./60% RH, 3 M",100.2%
same,"Related Substances, RRT = 0.26","[5]; 25° C./60% RH, 3 M",0.09 % w/w
same,Total Related Substances,"[5]; 25° C./60% RH, 3 M",0.09%
same,Water Content (Karl Fischer),"[5]; 25° C./60% RH, 3 M",12.25 % w/w
same,Assay (HPLC-UV),"[5]; 25° C./60% RH, 6 M",98.9%
same,Total Related Substances,"[5]; 25° C./60% RH, 6 M",0.05%
same,Water Content (Karl Fischer),"[5]; 25° C./60% RH, 6 M",12.04 % w/w
same,Assay (HPLC-UV),"[5]; 25° C./60% RH, 9 M",99.7%
same,"Related Substances, RRT = 0.26","[5]; 25° C./60% RH, 9 M",0.09 % w/w
same,Total Related Substances,"[5]; 25° C./60% RH, 9 M",0.12%
same,Water Content (Karl Fischer),"[5]; 25° C./60% RH, 9 M",11.52 % w/w
same,Assay (HPLC-UV),"[5]; 25° C./60% RH, 12 M",101.2%
same,Chiral Purity,"[5]; 25° C./60% RH, 12 M",100 % ee
same,"Related Substances, RRT = 0.18","[5]; 25° C./60% RH, 12 M",0.10 % w/w
same,"Related Substances, RRT = 0.88","[5]; 25° C./60% RH, 12 M",0.05 % w/w
same,Total Related Substances,"[5]; 25° C./60% RH, 12 M",0.16%
same,Water Content (Karl Fischer),"[5]; 25° C./60% RH, 12 M",11.52 % w/w
same,Assay (HPLC-UV),"[5]; 25° C./60% RH, 18 M",100.4%
same,"Related Substances, RRT = 0.26","[5]; 25° C./60% RH, 18 M",0.07 % w/w
same,Total Related Substances,"[5]; 25° C./60% RH, 18 M",0.07%
same,Water Content (Karl Fischer),"[5]; 25° C./60% RH, 18 M",11.50 % w/w
same,Assay (HPLC-UV),"[5]; 25° C./60% RH, 24 M",100.0%
same,Chiral Purity,"[5]; 25° C./60% RH, 24 M",100 % ee
same,"Related Substances, RRT = 0.26","[5]; 25° C./60% RH, 24 M",0.05 % w/w
same,Total Related Substances,"[5]; 25° C./60% RH, 24 M",0.05%
same,Water Content (Karl Fischer),"[5]; 25° C./60% RH, 24 M",11.42 % w/w
same,Assay (HPLC-UV),"[5]; 25° C./60% RH, 36 M",99.7%
same,Chiral Purity,"[5]; 25° C./60% RH, 36 M",100 % ee
same,"Related Substances, RRT = 0.26","[5]; 25° C./60% RH, 36 M",0.04 % w/w
same,Total Related Substances,"[5]; 25° C./60% RH, 36 M",0.04%
same,Water Content (Karl Fischer),"[5]; 25° C./60% RH, 36 M",11.53 % w/w
same,Assay (HPLC-UV),"[5]; 25° C./60% RH, Initial",100.9%
same,Chiral Purity,"[5]; 25° C./60% RH, Initial",100 % ee
same,"Related Substances, RRT = 0.26","[5]; 25° C./60% RH, Initial",0.05 % w/w
same,Total Related Substances,"[5]; 25° C./60% RH, Initial",0.05%
same,Water Content (Karl Fischer),"[5]; 25° C./60% RH, Initial",11.36 % w/w
same,time for which drug substance is considered stable,[5]; real time 25° C./60% RH data,at least 36 months
same,"arterial pressure, heart rate, ECG parameters, body temperature",[6],no noteworthy changes
same,"arterial pressure, heart rate, ECG parameters, body temperature",[6]; listed as TC6499,monkeys did not induce notable effects
same,binding affinity,[7],sites (51%).

# From patent US10709707B2, “Methods of treating ocular conditions” (Oyster Point Pharma, Inc., priority 2016, dated 2020)
